Source: patent publication US20250041275A1, “COMPOSITION FOR USE IN THE TREATMENT OF A DISEASE” (RAMBAM MED-TECH LTD., priority 2022, published 2025)

Key:
[1] = tested on: cerulein-induced acute pancreatitis; experiment: cerulein-induced acute pancreatitis (AP) in WT and Hpa-Tg mice; format: in vivo; conditions: for pancreato-protective effects against AP: early (pre) or post treatment, 10 mg/mouse, FIGS. 3-4; for tolerability: 16 and 32 mg/kg doses; for severity of AP: 16 and 32 mg/kg doses i.p., pre-treatment, FIGS. 5 and 6
Method: (§1) Studies utilized wild type (WT) BALB/c mice and heparanase transgenic (Hpa-Tg) mice in which the human heparanase gene is driven by a constitutive β-actin promoter (19) in a BALB/c genetic background. Animals were fed standard mouse chow and tap water ad libitum. All experiments were approved and performed according to the Technion's guidelines of the Committee for the Supervision of Animal Experiments.
Mice were injected with either cerulein (intraperitoneally, […], 5 times at 1 hour apart) (Sigma-Aldrich), or saline (0.9% NaCl) (control group). Additional groups of mice were pretreated with either Aspirin (250 mg/kg, SC) and Trehalose (2000 mg/kg, ip) alone or combined. Additional groups of animals were pre- and post-treated with Aspirlose (10 mg/mouse). […] Finally, the inventors tested the effectivity of “Indose” and “Diclose” at various concentrations against AP. Mice were sacrificed 24 hours later, and serum samples and pancreatic tissue were collected for measurements of blood amylase and lipase levels, pancreatic index (pancreas/body weight ratio), and for histological analysis. Portion of pancreas tissues were also homogenized, and lysate samples were subjected to immunoblotting.
Pancreatic tissue samples were fixed in 10% neutral-buffered formalin progressively dehydrated in graduated alcohol and embedded in paraffin. Five-micron (5 μm) sections were stained with hematoxylin and eosin (H&E).

[2] = tested on: cerulein-induced acute pancreatitis; conditions: previous studies; cited from earlier work
[3] = tested on: ischemia-reperfusion acute kidney injury; experiment: ischemia-reperfusion (I/R) acute kidney injury (AKI) model in Hpa-Tg mice; format: in vivo; conditions: pretreatment; for expression level of NGAL in kidney / expression level of KIM-1 in kidney: female Hpa-Tg mice; for expression level of NGAL in kidney / NGAL expression in kidney: FIG. 11A; for expression level of KIM-1 in kidney: FIG. 11B; for NGAL expression in kidney: male Hpa-Tg mice; for kidney weight normalized to body weight (KW/BW): Hpa-Tg mice, 48 h after AKI, FIGS. 7A and 8A; for gross morphology and histopathology of kidneys: Indose 16 mg/kg i.p., Diclose 32 mg/kg i.p., male and female Hpa-Tg mice, FIGS. 9 and 10; for increase of blood urea nitrogen (BUN) following AKI / increase of serum creatinine (SCr) following AKI: male Hpa-Tg mice (trend persisted in females), 48 h from AKI induction
Method: as §1
(§2) Renal ischemia was induced by clamping the renal artery of both kidneys for 30 min followed by reperfusion (I/R). The inventors tested the effectivity of “Indose” and “Diclose” before induction of ischemia (e.g., “prophylactic effect” or “pre-treatment”) or after (e.g., “treating effect” or “post-treatment”), using the dosing as disclosed hereinabove. Mice were sacrificed 48 hours later, and serum samples and kidney tissue were collected for measurements of blood creatinine and urea nitrogen levels, kidney index (kidney/body weight ratio), and for histological analysis. Portion of kidney tissues were also homogenized, and lysate samples were subjected to mRNA extraction, and expression analysis of neutrophil gelatinase-associated lipocalin (NGAL) and kidney injury molecule-1 (KIM-1).
(§3) The inventors used the ischemia-reperfusion (I/R)-AKI model in mice. The pathogenesis of this disease was evaluated based on kidney edema, blood creatinine (Scr), and blood urea nitrogen (BUN) levels were determined 48 hours following AKI induction. Further, the inventors performed histopathological analysis, as well as expression analysis of the renal injury biomarkers neutrophil gelatinase-associated lipocalin (NGAL), kidney injury molecule-1 (KIM-1).
AKI was induced in the absence or presence of pretreatment with Indose (16 mg/kg, i.p.) or Diclose (32 mg/kg, i.p.), respectively in Hpa-Tg mice (males and females). Untreated Hpa-Tg male and female mice that underwent sham operation served as control group. […] In male mice pretreated with Diclose and Indose, a reduction in NGAL expression was also observed (FIG. 11A). This trend persisted in female mice although the elevation in SCr and BUN following AKI was to a lesser extent.

[4] = tested on: wild type mice; experiment: acute toxicity, intraperitoneal injection in wild type mice; conditions: mouse, in vivo, ip; for mortality: 500 mg/kg
Method: (§4) Further, the inventors examined the acute toxicity of the compounds Indose and Diclose. A series of dosages: 8 mg/kg, 32 mg/kg, 64 mg/kg, 128 mg/kg, 256 mg/kg, 512 mg/kg, 768 mg/kg, 1024 mg/kg, 1,100 mg/kg, and 1,200 mg/kg were injected by intraperitoneal injection in the presence of sterile water as carrier. Each dosage was injected to a group of 5 wild type mice.

[5] = as above; conditions: mouse, in vivo, ip; intraperitoneal injection, sterile water as carrier, groups of 5 wild type mice
Method: as §4

[6] = tested on: ischemia-reperfusion acute kidney injury; experiment: ischemia-reperfusion (I/R) acute kidney injury (AKI) model in WT FVB/N mice; format: in vivo; conditions: administered short time after induction of AKI, FIGS. 13A-13C
Method: as §2
as §3, with “(KIM-1). […]” for “(KIM-1).”

[7] = WT and Hpa-Tg mice, cerulein treatment, FIG. 1

| SMILES | pancreato-protective effects against AP [1] | tissue edema (histopathology of pancreas) ([1]; WT and Hpa-Tg mice exposed to cerulein, FIG. 2) | elevation in biochemical parameters (serum amylase and lipase) [1, 7] | pancreatic edema (pancreatic index, % Pancreatic weight/Body weight) [1, 7] | pancreas edema and inflammation, induction of cytokines and signaling molecules following cerulein administration [2] | expression level of NGAL in kidney [3] | expression level of KIM-1 in kidney [3] | NGAL expression in kidney [3] | kidney weight normalized to body weight (KW/BW) [3] | gross morphology and histopathology of kidneys [3] | increase of blood urea nitrogen (BUN) following AKI [3] | increase of serum creatinine (SCr) following AKI [3] | toxicity (overall) [4] | mortality [4] | LD50 [5] [mg/kg] | tolerability ([1]; WT and Hpa-Tg mice) | severity of AP ([1]; WT and Hpa-Tg mice) | effects on AKI, post-treatment [6] |
| --- | --- | --- | --- | --- | --- | --- | --- | --- | --- | --- | --- | --- | --- | --- | --- | --- | --- | --- |
| CC(=O)Oc1ccccc1C(=O)OCC1O[C@H](O[C@H]2O[C@H](COC(=O)c3ccccc3OC(C)=O)[C@@H](O)[C@H](O)[C@H]2O)[C@H](O)[C@@H](O)[C@@H]1O (some centres unmarked) [Asprilose dimer] | pancreato-protective effects | – | – | – | – | – | – | – | – | – | – | – | – | – | – | – | – | – |
| CC(C)CCC[C@@H](C)[C@H]1CC[C@H]2[C@@H]3CC[C@H]4C[C@@H](O[C@@H]5O[C@H](COS(=O)(=O)O)[C@@H](O[C@H]6O[C@H](COS(=O)(=O)O)[C@@H](O[C@H]7O[C@H](COS(=O)(=O)O)[C@@H](O[C@H]8O[C@H](COS(=O)(=O)O)[C@@H](OS(=O)(=O)O)[C@H](OS(=O)(=O)O)[C@H]8OS(=O)(=O)O)[C@H](OS(=O)(=O)O)[C@H]7OS(=O)(=O)O)[C@H](OS(=O)(=O)O)[C@H]6OS(=O)(=O)O)[C@H](OS(=O)(=O)O)[C@H]5OS(=O)(=O)O)CC[C@]4(C)[C@H]3CC[C@]12C [PG545, reference compound] | – | markedly restored | markedly reduced | markedly reduced | attenuated markedly | – | – | – | – | – | – | – | – | – | – | – | – | – |
| Cc1c(CC(=O)OC[C@H]2O[C@H](O[C@H]3O[C@H](CO)[C@@H](O)[C@H](O)[C@H]3O)[C@H](O)[C@@H](O)[C@@H]2O)c2ccccc2n1C(=O)c1ccc(Cl)cc1 [Indose, Trehalose-Indomethacin] | – | – | – | – | – | effectively reduced | effectively reduced | reduction | significantly reduced | resembled kidneys of the ‘Sham’ control group | remarkably attenuated | remarkably attenuated | low toxicity | No mortality was observed | 900 | well tolerated | reduced the severity of AP | curative effects |
| CC(=O)Oc1ccccc1C(=O)OC[C@H]1O[C@H](O[C@H]2OC(CO)[C@@H](O)[C@H](O)[C@H]2O)[C@H](O)[C@@H](O)[C@@H]1O (some centres unmarked) [Asprilose mono] | pancreato-protective effects | – | – | – | – | – | – | – | – | – | – | – | – | – | – | – | – | – |
| O=C(Cc1ccccc1Nc1c(Cl)cccc1Cl)OC[C@H]1O[C@H](O[C@H]2O[C@H](CO)[C@@H](O)[C@H](O)[C@H]2O)[C@H](O)[C@@H](O)[C@@H]1O [Diclose, Trehalose-Dichlorofenac] | – | – | – | – | – | effectively reduced | effectively reduced | reduction | significantly reduced | resembled kidneys of the ‘Sham’ control group | remarkably attenuated | remarkably attenuated | low toxicity | No mortality was observed | 780 | well tolerated | reduced the severity of AP | curative effects of AKI, with the effects of Diclose being more pronounced |
